One series can be described thus: in vitro. The note with it: human.
The test system of series [1] is Huh7 cells expressing a subgenomic RNA replicon of Con1 (genotype 1b) sequence origin. Kind of series: microbe, parasite or virus in culture. The settings on record: Hepatitis C virus.
[2] abbreviates: Huh-7, read-out: IC50 (uM) [SG].
The mark [3] stands for this setting: Huh-7, read-out: Max Effect@CC30 (inhibition).
[4] abbreviates: GETYPE1B, Huh-7, 72 h, read-out: Max Effect @CC30 (inhibition).
Setting [5] is: Huh-7, read-out: Max Effect @CC30 (inhibition).
Setting [6] is: Huh-7, read-out: Max effect @CC30 (%).

From patent publication US20100009970A1, “COMPOSITIONS AND METHODS FOR TREATMENT OF VIRAL DISEASES” (Combinatorx (Singapore) Pte. Ltd., priority 2008, published 2010) come the findings set out here.

Like-named read-outs stand apart in the source and are kept apart here.

For `CN(C)[C@H]1CC[C@@H](c2ccc(Cl)c(Cl)c2)c2ccc(NC(=O)c3ccccc3)cc21` [N-((5S,8S)-5-(3,4-dichlorophenyl)-8-(dimethylamino)-5,6,7,8-tetrahydronaphthalen-2-yl)benzamide], the CC50 in the series “in vitro” (CC50 (uM) [SG]) is 12.5 µM. For the same compound, in series [1] (setting [2]), the IC50 was 9.41 µM.

`CN[C@H]1CC[C@@H](c2ccc(Cl)c(Cl)c2)c2ccc(NS(=O)(=O)c3cn(C)cn3)cc21` [N-((5S,8S)-5-(3,4-dichlorophenyl)-8-(methylamino)-5,6,7,8-tetrahydronaphthalen-2-yl)-1-methyl-1H-imidazole-4-sulfonamide] came in with a CC50 in “in vitro” (CC50 (uM) [SG]) of 13.6 µM. Moreover, the IC50 in series [1] (setting [2]) was found to be 7.76 µM. For the same compound, the Emax in series [1] (setting [3]) stood at 20.2%.

In “in vitro” (CC50 (uM) [SG]), `CN[C@H]1CC[C@@H](c2ccc(Cl)c(Cl)c2)c2ccc(N(C)C(C)=O)cc21` [N-((5S,8S)-5-(3,4-dichlorophenyl)-8-(methylamino)-5,6,7,8-tetrahydronaphthalen-2-yl)-N-methylacetamide] returned a CC50 of 14.6 µM. The IC90 in series [1] (Huh-7) was determined as 10.7 µM. Also, in series [1] (setting [2]), the 50% inhibitory concentration (IC50) amounted to 3.79 µM.

For `CN[C@H]1CC[C@@H](c2ccc(Cl)c(Cl)c2)c2ccc(NS(=O)(=O)c3ccccc3)cc21` [N-((5S,8S)-5-(3,4-dichlorophenyl)-8-(methylamino)-5,6,7,8-tetrahydronaphthalen-2-yl)benzenesulfonamide], the CC50 in the series “in vitro” (CC50 (uM)) and in “in vitro” (CC50 (uM) [SG]) was 3.91 µM each time. The IC50 in series [1] (Huh-7) and in series [1] (setting [2]) was 3.48 µM in each case. In addition, the IC90 in series [1] (Huh-7) was 3.83 µM.

Take `CCCCS(=O)(=O)Nc1ccc2c(c1)[C@@H](NC)CC[C@H]2c1ccc(Cl)c(Cl)c1` [N-((5S,8S)-5-(3,4-dichlorophenyl)-8-(methylamino)-5,6,7,8-tetrahydronaphthalen-2-yl)butane-1-sulfonamide]: in the series “in vitro” (CC50 (uM) [SG]), the CC50 came out at 3.63 µM. Also, the IC50 in series [1] (setting [2]) is 6.07 µM.

On to `CN[C@H]1CC[C@@H](c2ccc(Cl)c(Cl)c2)c2ccc(NC(=O)C3CCCC3)cc21` [N-((5S,8S)-5-(3,4-dichlorophenyl)-8-(methylamino)-5,6,7,8-tetrahydronaphthalen-2-yl)cyclopentanecarboxamide], for which the CC50 in the series “in vitro” (CC50 (uM)) and in “in vitro” (CC50 (uM) [SG]) was 7 µM each time. The IC50 in series [1] (Huh-7) and in series [1] (setting [2]) was 4.02 µM each time. In series [1] (Huh-7), this compound yielded a concentration for an effect of 90% (IC90) of 5.89 µM. In addition, the Emax in series [1] (setting [3]) is 22.9%.

In the series “in vitro” (CC50 (uM) [SG]), `CC(=O)NCc1ccc2c(c1)[C@@H](N(C)C)CC[C@H]2c1ccc(Cl)c(Cl)c1` [N-(((5S,8S)-5-(3,4-dichlorophenyl)-8-(dimethylamino)-5,6,7,8-tetrahydronaphthalen-2-yl)methyl)acetamide] had a CC50 of 19.1 µM. For the same compound, the 90% effect concentration (IC90) in series [1] (Huh-7) is 9.72 µM. Besides, in series [1] (setting [2]), the IC50 amounted to 4.45 µM. Also, the Emax in series [1] (setting [3]) was found to be 92%.

In the case of `CN(C1CC1)[C@H]1CC[C@@H](c2ccc(Cl)c(Cl)c2)c2ccccc21` [N-Cyclopropyl Sertraline, (1S,4S)—N-cyclopropyl-4-(3,4-dichlorophenyl)-N-methyl-1,2,3,4-tetrahydronaphthalen-1-amine], in the series “in vitro” (CC50 (uM) [SG]), the CC50 is more than 50 µM. In series [1] (Huh-7), this compound displayed an IC90 of 34.2 µM. Further, the IC50 in series [1] (setting [2]) was 14.5 µM. Moreover, the Emax in series [1] (setting [3]) was determined as 99%.

`CN(CCO)[C@H]1CC[C@@H](c2ccc(Cl)c(Cl)c2)c2ccccc21` [N-Ethanol Sertraline, 2-(((1S,4S)-4-(3,4-dichlorophenyl)-1,2,3,4-tetrahydronaphthalen-1-yl)(methyl)amino)ethanol]: the CC50 in the series “in vitro” (CC50 (uM) [SG]) came out at 49.8 µM. The compound further registered a concentration for an effect of 90% (IC90) in series [1] (Huh-7) of 21.9 µM. Besides, the IC50 in series [1] (setting [2]) worked out at 7.8 µM. Moreover, the Emax in series [1] (setting [3]) was determined as 93%.

Take `CN[C@H]1CC[C@@H](c2ccc(Cl)c(Cl)c2)c2ccc([N+](=O)[O-])cc21` [Nitro Sertraline, (1S,4S)-4-(3,4-dichlorophenyl)-N-methyl-7-nitro-1,2,3,4-tetrahydronaphthalen-1-amine]: the CC50 in the series “in vitro” (CC50 (uM)) and in “in vitro” (CC50 (uM) [SG]) was 8.03 µM throughout. Besides, the Emax in series [1] (setting [4]) and in series [1] (setting [3]) was 27% throughout. The IC50 in series [1] (Huh-7, 72 h) worked out at 6.46 µM; in series [1] (setting [2]), 6.46 µM.

Regarding `CN[C@H]1CC[C@@H](c2ccc(Cl)c(Cl)c2)c2ccc(C(N)=O)cc21` [Sertraline A ring carboxamide, (5S,8S)-5-(3,4-dichlorophenyl)-8-(methylamino)-5,6,7,8-tetrahydronaphthalene-2-carboxamide], the CC50 in “in vitro” (CC50 (uM) [SG]) amounted to 16.2 µM. For the same compound, the half-maximal inhibitory concentration (IC50) in series [1] (setting [2]) was determined as 1.8 µM.

With `CN[C@H]1CC[C@@H](c2ccc(Cl)c(Cl)c2)c2ccc(C(=O)Nc3ccccc3)cc21` [Sertraline A-Ring Benzamide, (5S,8S)-5-(3,4-dichlorophenyl)-8-(methylamino)-N-phenyl-5,6,7,8-tetrahydronaphthalene-2-carboxamide], the CC50 in “in vitro” (CC50 (uM) [SG]) was found to be 3.89 µM. Besides, in series [1] (setting [2]), the IC50 came out at 2.73 µM. Besides, the Emax in series [1] (setting [3]) was found to be 48.6%.

`CNC(=O)c1ccc2c(c1)[C@@H](NC)CC[C@H]2c1ccc(Cl)c(Cl)c1` [Sertraline A-Ring Methyl Carboxamide, (5S,8S)-5-(3,4-dichlorophenyl)-N-methyl-8-(methylamino)-5,6,7,8-tetrahydronaphthalene-2-carboxamide] showed a CC50 in “in vitro” (CC50 (uM) [SG]) of 11.1 µM. Moreover, in series [1] (setting [2]), the concentration for half-maximal inhibition (IC50) was 2.82 µM. Further, in series [1] (setting [3]), the Emax worked out at 81.2%.

Compound `CN[C@H]1CC[C@@H](c2ccc(Cl)c(Cl)c2)c2ccc(CSC)cc21` [Sertraline A-Ring Methylsulfide, (1S,4S)-4-(3,4-dichlorophenyl)-N-methyl-7-(methylthiomethyl)-1,2,3,4-tetrahydronaphthalen-1-amine] showed a CC50 in the series “in vitro” (CC50 (uM) [SG]) of 6.18 µM. Moreover, the IC50 in series [1] (setting [2]) stood at 4.18 µM. In series [1] (setting [3]), the Emax came out at 14.8%.

As for `CN[C@H]1CC[C@@H](c2ccc(Cl)c(Cl)c2)c2ccc(N(C)C)cc21` [Sertraline A-Ring N,N-Dimethylamine, (1S,4S)-4-(3,4-dichlorophenyl)-N1,N7,N7-trimethyl-1,2,3,4-tetrahydronaphthalene-1,7-diamine], the CC50 in “in vitro” (CC50 (uM)) and in “in vitro” (CC50 (uM) [SG]) was 6.22 µM throughout. The 50% inhibitory concentration (IC50) in series [1] (Huh-7) and in series [1] (setting [2]) was 3.52 µM in each case. The compound also displayed an IC90 in series [1] (Huh-7) of 5.82 µM. The Emax in series [1] (setting [3]) amounted to 35.1%.

Regarding `CN[C@H]1CC[C@@H](c2ccc(Cl)c(Cl)c2)c2ccc(NC(=O)c3ccccc3)cc21` [Sertraline A-Ring Reverse Benzamide, N-((5S,8S)-5-(3,4-dichlorophenyl)-8-(methylamino)-5,6,7,8-tetrahydronaphthalen-2-yl)benzamide], the CC50 in “in vitro” (CC50 (uM)) and in the series “in vitro” (CC50 (uM) [SG]) was 3.67 µM in each case. The half-maximal inhibitory concentration (IC50) in series [1] (Huh-7) and in series [1] (setting [2]) was 2.94 µM in each case. The concentration for an effect of 90% (IC90) in series [1] (Huh-7) worked out at 3.88 µM. In addition, the Emax in series [1] (setting [3]) was determined as 62.2%.

As for `CN[C@H]1CC[C@@H](c2ccc(Cl)c(Cl)c2)c2ccc(NC(C)=O)cc21` [Sertraline A-Ring Reverse Carboxamide, N-((5S,8S)-5-(3,4-dichlorophenyl)-8-(methylamino)-5,6,7,8-tetrahydronaphthalen-2-yl)acetamide], the CC50 turned out to be 10.7 µM in “in vitro” (CC50 (uM)) and 12 ± 1.77 µM in the series “in vitro” (CC50 (uM) [SG]). In addition, the IC50 in series [1] (Huh-7) came out at 0.85 µM; in series [1] (setting [2]), 0.91 ± 0.08 µM; in series [1] (Huh-7, read-out: SA IC50 (uM)), 0.91 ± 0.08 µM. It took 7.26 µM to reach the 90% level in series [1] (Huh-7) (IC90). Also, the Emax in series [1] (setting [5]) came to 87.7%; in series [1] (setting [3]), 83 ± 6.55%; in series [1] (setting [6]) it was 83 ± 6.55%.

For `CCCCC(=O)Nc1ccc2c(c1)[C@@H](NC)CC[C@H]2c1ccc(Cl)c(Cl)c1` [Sertraline A-Ring Reverse Pentanamide, N-((5S,8S)-5-(3,4-dichlorophenyl)-8-(methylamino)-5,6,7,8-tetrahydronaphthalen-2-yl)pentanamide], the CC50 in the series “in vitro” (CC50 (uM)) and in the series “in vitro” (CC50 (uM) [SG]) was 4.32 µM in each case. The half-maximal inhibitory concentration (IC50) in series [1] (Huh-7) was 3.68 µM; in series [1] (setting [2]), 3.67 µM. The compound further yielded an IC90 in series [1] (Huh-7) of 5.03 µM. Moreover, the Emax in series [1] (setting [5]) and in series [1] (setting [3]) was 33.1% in each case.

The compound `CN[C@H]1CC[C@@H](c2ccc(Cl)c(Cl)c2)c2ccc(C(N)=S)cc21` [Sertraline A-Ring Thiocarboxamide, (5S,8S)-5-(3,4-dichlorophenyl)-8-(methylamino)-5,6,7,8-tetrahydronaphthalene-2-carbothioamide] yielded a CC50 in the series “in vitro” (CC50 (uM) [SG]) of 13.2 µM. The IC50 in series [1] (setting [2]) stood at 7.19 µM.

Consider `CN[C@H]1CC[C@@H](c2ccc(Cl)c(Cl)c2)c2ccc(C(=O)Nc3ccccn3)cc21` [Sertraline A-ring Pyridine Carboxamide, (5S,8S)-5-(3,4-dichlorophenyl)-8-(methylamino)-N-(pyridin-2-yl)-5,6,7,8-tetrahydronaphthalene-2-carboxamide], for which the CC50 in “in vitro” (CC50 (uM) [SG]) came out at 7.05 µM. Also, the IC50 in series [1] (setting [2]) was 4.43 µM. In addition, in series [1] (setting [3]), the Emax was 61.3%.

On to `CNC1CCC(c2ccc(Cl)c(Cl)c2)c2ccsc21` (centres unmarked) [Sertraline A-ring Thiophene], for which, in “in vitro” (CC50 (uM) [SG]), the CC50 was 18.8 ± 0.93 µM. Further, the IC50 in series [1] (setting [2]) was determined as 8.27 ± 0.46 µM; in series [1] (Huh-7, read-out: SA IC50 (uM)) it was 8.27 ± 0.46 µM. In addition, the Emax in series [1] (setting [3]) and in series [1] (setting [6]) was 80.8 ± 2.55% throughout.

As for `CN[C@H]1CC[C@@H](c2ccc(Cl)c(Cl)c2)c2ccc(N)cc21` [Sertraline Aniline, (1S,4S)-4-(3,4-dichlorophenyl)-N1-methyl-1,2,3,4-tetrahydronaphthalene-1,7-diamine], the CC50 in “in vitro” (CC50 (uM)) and in “in vitro” (CC50 (uM) [SG]) was 8.72 µM throughout. Also, the Emax in series [1] (setting [4]) and in series [1] (setting [3]) was 50% throughout. Besides, the half-maximal inhibitory concentration (IC50) in series [1] (Huh-7, 72 h) came out at 6 µM; in series [1] (setting [2]), 6 µM.

In the series “in vitro” (CC50 (uM) [SG]), `CNC1CCC(c2cccc(OC)c2)c2ccccc21` (centres unmarked) [Sertraline B ring m-Methoxy, 4-(3-methoxyphenyl)-N-methyl-1,2,3,4-tetrahydronaphthalen-1-amine] yielded a CC50 of more than 50 µM. Also, the IC50 in series [1] (setting [2]) was found to be 28.8 µM.

In turn, `CNC1CCC(c2ccc(OC)cc2)c2ccccc21` (centres unmarked) [Sertraline B-Ring Para-Methoxy, 4-(4-methoxyphenyl)-N-methyl-1,2,3,4-tetrahydronaphthalen-1-amine] returned a CC50 in “in vitro” (CC50 (uM) [SG]) of 51.1 µM. The 50% inhibitory concentration (IC50) in series [1] (setting [2]) was found to be 26.8 µM.

By IC50 is commonly meant the concentration that gives 50% inhibition. The IC90 is the concentration needed for an effect of 90%. The low end stands for greater potency, the high end for weaker potency.
